Data: paper PMC11977255 (Communications Biology, 2025)

Columns and labels:
McyI [1] = molecular target: T1, McyI (Anabaena sp. 90, UniProt Q7WRR2); assay: isothermal titration calorimetry; type: binding
McyI [2] = molecular target: T1, McyI; assay: reductase assay, absorbance at […] nm; type: biochemical; details: 1 mM OAA, 0.2 mM NADPH, 1.6 μM enzyme

T1 sequence (Q7WRR2 1-337 limits assumed): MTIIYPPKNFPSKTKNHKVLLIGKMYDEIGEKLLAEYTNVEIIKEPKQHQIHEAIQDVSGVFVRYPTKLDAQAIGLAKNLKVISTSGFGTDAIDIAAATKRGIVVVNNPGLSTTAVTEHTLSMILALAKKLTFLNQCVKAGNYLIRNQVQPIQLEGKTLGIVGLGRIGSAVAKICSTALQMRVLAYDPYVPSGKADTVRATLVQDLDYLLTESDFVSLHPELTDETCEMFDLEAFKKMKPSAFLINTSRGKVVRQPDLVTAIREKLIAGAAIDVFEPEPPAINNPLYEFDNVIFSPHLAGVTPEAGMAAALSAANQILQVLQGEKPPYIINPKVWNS

Structure (SMILES)	Kd (McyI [1]) [µM]	reductase assay, absorbance at 340 nm (McyI [2])
NC(=O)C1=CN([C@@H]2O[C@H](COP(=O)(O)OP(=O)(O)OC[C@H]3O[C@@H](n4cnc5c(N)ncnc54)[C@H](OP(=O)(O)O)[C@@H]3O)[C@@H](O)[C@H]2O)C=CC1 [NADPH]	16	–
O=C(O)CC(=O)C(=O)O [OAA]	–	The enzyme, OAA, and the nicotinamide cofactor
